Measured values: patent US7438931B2, “Methods and compositions for the treatment of angiogenic diseases” (The Regents of The University of Michigan, priority 1998, dated 2008)
Where “and” joins values, the source holds several entries; their conditions need not be identical. Equal entries are not always repeated.

Key:
[1] = approximately 6 mg of TM per kilogram of diet; cited from earlier work
[2] = test system: copper toxicity; conditions: late stages of liver disease; cited from earlier work
[3] = test system: Cp level; test: TM loading dosing schedule and Cp reduction; format: in vivo, human; conditions: 20 mg tid with meals and a single dose of 60 mg between meals, vs 20 mg tid with meals and 20 mg tid between meals
Experimental: Therefore, this dosing schedule will be studied in a Phase II study. Three other loading doses of TM will also be studied: Level 1: 20 mg tid between meals and 20 mg tid with meals until Cp<20% (10 patients); Level 2: 25 mg tid between meals and 25 mg tid with meals until Cp<20% (10 patients); and Level 3: 30 mg tid between meals and 30 mg tid with meals until Cp<20% (10 patients).

[4] = test system: mammary tumors
Experimental: The time of onset of tumors and the quality and quantity of tumor vessels between the treatment and control groups were compared.
The percentage of disease-free mice in the untreated control group was compared to a group of the same transgenic mice treated with 0.5-1.0 mg TM by gavage daily, starting at 100 days of age.

[5] = Water solubility
[6] = Stability of sucrose-TM complex vs pure TM in open air (OD467); format: physicochemical; conditions: after 3 months of storage in an open dish
Experimental: An example of such a stabilized thiomolybdate compound is tetrathiomolybdate stabilized by sucrose. To prepare the sucrose-ammonium tetrathiomolybdate complex, 25 grams of sucrose is dissolved in 20 ml of distilled water. 1 gram of ammonium tetrathiomolybdate (TM) is added and the mixture stirred under argon until the TM is solution. The water is then removed from the mixture by flash evaporation under high vacuum.
After 3 months of storage in an open dish, the sucrose powder retained 61% of the original drug as measured by the OD467, while the TM stored under the same conditions retained only 5% of its original OD467.

[7] = for eight weeks; cited from earlier work
[8] = test system: MML cells (prostate cancer) and breast cancer cells; test: Cytotoxicity assay of MML cells and breast cancer cells; format: cell-based
Excerpt: Normal and neoplastic cells in culture derive their nutrients from transport and utilization of molecules from the media to the interior of the cell. This process is not dependent on blood vessel growth, and therefore TM should have no effect on cell growth rates and cell viability over a wide range of concentration, until a level of TM which is toxic to most cells is reached. One mechanism of toxicity is the depletion of free copper levels below those required for basic cell function. For concentrations of TM beyond this toxic level, both normal and neoplastic cells will be unable to survive, due to cellular toxicity of TM.
This was confirmed in a cytotoxicity assay of MML cells (prostate cancer) and breast cancer cells. […] The fraction of viable cells decreased precipitously from 100% to 15% when the concentration of TM increased from 1 μg/ml to 10 μg/ml. TM is therefore not contemplated for use a direct cytotoxic agent, as it is clear that, at the very high doses required for a cytotoxic effect, both tumor and normal cell death would occur. The serum TM concentrations needed to achieve an effective decoppering level are 100-500-fold lower than the threshold lethal level for cells.

[9] = in vivo, iv; cited from earlier work
[10] = test system: copper metabolism; test: Open label study of TM for initial treatment of Wilson's disease patients; format: in vivo, human
Excerpt: The inventors have carried out an open label study of the use of TM for initial treatment of neurologically presenting Wilson's disease patients for the past several years. The inventors have developed both a spectrophotometric and bioassay for the activity of the drug, to evaluate stability, and assure potency of the drug being administered (Brewer et al., 1991a; Brewer et al., 1994b). The drug slowly loses potency when exposed to air.
The inventors have now treated a total of 51 Wilson's disease patients with TM, all of whom presented with neurological or psychiatric disease, in an open label study. These patients were all diagnosed by standard criteria. […] Some of them were treated briefly with other agents prior to this trial. Two patients had psychiatric but not neurological symptoms.
With three exceptions in the earliest part of the study, all patients received a dose of 20 mg tid with meals, or qid with three meals and a snack. Thus, the only difference between a patient receiving 120 mg and 140 mg total dose is that the former was receiving 20 mg tid, or 60 mg, with meals, and the latter was receiving 20 mg qid, or 80 mg with meals plus a snack. The rest of the total daily dose was divided up into three equal doses and given between meals.
TM impacts quickly and favorably on copper metabolism, reducing the potentially toxic copper of the blood and theoretically, the rest of the body. The primary clinical objective is to gain control over copper toxicity while not allowing clinical worsening. In other words, the prime objective is to protect all neurological function that is present at the time therapy is started. This was evaluated weekly by quantitative neurological and speech exams. Methodology and the neurology rating scale system have been published (Young et al., 1986). During the weeks of TM administration, during which copper metabolism is being controlled, neurological function as evaluated by quantitative neurological exam, is protected.

[11] = test system: mouse sarcoma, MCA205, and a mouse melanoma, B16B16; test: Mouse tumor model, injected tumor cells in C57B1/6J mice; format: in vivo
Experimental: Under these guidelines, anti-angiogenesis therapeutic studies were conducted using TM in a mouse tumor model. This study involved subcutaneous or intramuscular injection of tumor cells into young adult C57B1/6J mice. Two tumors were used, a mouse sarcoma, MCA205, and a mouse melanoma, B16B16. The MCA 205 tumor cell suspension was injected subcutaneously into C57B16 mice. After the tumors were palpable, copper deficiency was induced by use of TM in half the animals, using Cp levels to monitor copper status. The other half were sham treated. Tumor growth was compared between the untreated control group and mice treated with sufficient TM to reduce Cp to about 10% of normal controls.

[12] = among the seven anemia patients

## tetrathiomolybdate [TM]
[1]
  effects on copper: reduction of plasma ceruloplasmin and a reduction in liver and kidney copper
[2]
  efficacy against copper toxicity: very effective in treating these animals in the late stages of their liver disease
[3]
  speed of Cp reduction: reduces the Cp level to <20% more rapidly
[4]; 0.5-1.0 mg TM by gavage daily from 100 days of age, median follow-up of 260 days
  development of clinically overt tumors: none of the TM-treated mice developed clinically overt tumors
[4]; adult mice (average weight 32 grams), prolonged treatment
  maximum tolerated dose (MTD): 1.0 mg/day
[4]; animals who received 1.25-1.5 mg
  outcome at higher doses: died after 1-3 weeks of therapy
[4]; control animals treated after tumors >1.5 cm, 2 of 3 cases
  shrinkage of well established mammary tumors: 25% and 50%
[4]; copper (Cp) decreased to below 40% of baseline
  anemia: no anemia observed
[4]; copper levels decreased to 10% of baseline
  toxicity: no clinically overt toxicity
[4]; cross-over group, previously disease-free
  time to clinically overt mammary tumors after release from treatment: ≤ 18 days
[4]; microscopic analyses of TM-treated mice
  vascularization of micro-tumors in mammary glands: none of the micro-tumors of the treated mice were vascularized
[4]; treatment group
  ceruloplasmin (Cp): below 40 % of baseline
[5]
  water solubility: moderately water soluble
[6]
  retained % of the original drug as measured by the OD467: 5%
[7]
  potency retained in gelatin capsules: at least 90%
[8]
  serum TM concentrations for effective decoppering relative to threshold lethal level for cells: 100-500 fold lower
[9]
  excreted in feces: 5%
  excreted in urine: over 90%
  t1/2 of slow plasma disappearance: about 40 h
[10]; 45 patients treated eight weeks with TM as initial therapy
  cases of reversible anemia: 11.1%
[10]; [12]
  patients with reduction in platelet count: Three
  patients with reduction in white blood cell count: four
[10]; dose of 180 mg/day or over
  patients with overtreatment: 6 of 37
[10]; dose of 150 or lower
  patients with overtreatment: 1 of 13
[10]; first patient, tid with meals 7 days, then also tid between meals
  time to close the plasma copper-molybdenum gap (free copper reduced to zero): 16 days
[10]; human, in vivo
  patients with elevation of transaminase values (serum AST and ALT): four
  patients with reversible anemia/bone marrow depression: seven
[10]; initial 8 weeks of TM therapy
  quantitative speech exam scores: No patient shows significant (more than 2.0 units) reduction in scores
[10]; late stages of TM therapy, starting value 27
  TCA soluble fraction of plasma copper: 15 µg/dL
[10]; patients with anemia
  fall in hemoglobin, average: 3.4 g %
[10]; weeks of TM administration, quantitative neurological exam
  patients with neurological worsening (change of more than 5 units): 4 % of the sample
[11]; TM sufficient to reduce Cp to about 10% of normal, 16 days of observation
  tumor growth: Tumor growth was slowed by the treatment, although not halted
[11]; TM-treated vs control mice
  tumor weight normalized to total weight of the animal: weighed significantly less than the tumors in control mice
